PubChem BioAssay AID1963844 (Molecular Pharmacology Branch, DTP, NCI, 2024)

Tested on: 422866-222-R5-J1-PDC complex spheroid viability
Assay: Anticancer human tumor 422866-222-R5-J1-PDC patient-derived pancreatic adenocarcinoma cell line growth inhibition [POLQ]
Conditions: for IC50: curve of first compound; for viability, T/C: stronger effect = lower value
How it was run: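 Patient-derived tumour cells were co-cultured with HUVEC and mesenchymal stem cells as multicellular spheroids at 37 °C. They were treated with POLQ inhibitors (novobiocin, ART-558, RP6685) alone or combined with other agents. Top concentrations were at or near clinical Cmax (otherwise 10 microM; SN-38 at 1 microM), decreasing in half-log steps.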

[1] = second compound 0.0316 µM, first compound 0.0316 µM
[2] = second compound 0.0316 µM, first compound 0.1 µM
[3] = second compound 0.0316 µM, first compound 0.316 µM
[4] = second compound 0.0316 µM, first compound 1 µM
[5] = second compound 0.0316 µM, first compound 3.16 µM
[6] = second compound 0.0316 µM, first compound 10 µM
[7] = second compound 0.1 µM, first compound 0.0316 µM
[8] = second compound 0.1 µM, first compound 0.1 µM
[9] = second compound 0.1 µM, first compound 0.316 µM
[10] = second compound 0.1 µM, first compound 1 µM
[11] = second compound 0.1 µM, first compound 3.16 µM
[12] = second compound 0.1 µM, first compound 10 µM
[13] = second compound 0.316 µM, first compound 0.0316 µM
[14] = second compound 0.316 µM, first compound 0.1 µM
[15] = second compound 0.316 µM, first compound 0.316 µM
[16] = second compound 0.316 µM, first compound 1 µM
[17] = second compound 0.316 µM, first compound 3.16 µM
[18] = second compound 0.316 µM, first compound 10 µM
[19] = second compound 1 µM, first compound 0.0316 µM
[20] = second compound 1 µM, first compound 0.1 µM
[21] = second compound 1 µM, first compound 0.316 µM
[22] = second compound 1 µM, first compound 1 µM
[23] = second compound 1 µM, first compound 3.16 µM
[24] = second compound 1 µM, first compound 10 µM
[25] = second compound 3.16 µM, first compound 0.0316 µM
[26] = second compound 3.16 µM, first compound 0.1 µM
[27] = second compound 3.16 µM, first compound 0.316 µM
[28] = second compound 3.16 µM, first compound 1 µM
[29] = second compound 3.16 µM, first compound 3.16 µM
[30] = second compound 3.16 µM, first compound 10 µM
[31] = second compound 10 µM, first compound 0.0316 µM
[32] = second compound 10 µM, first compound 0.1 µM
[33] = second compound 10 µM, first compound 0.316 µM
[34] = second compound 10 µM, first compound 1 µM
[35] = second compound 10 µM, first compound 3.16 µM
[36] = second compound 10 µM, first compound 10 µM
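Also: spheroids exposed to compounds for one week before readout.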
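For viability, T/C in this document: percent of DMSO vehicle wells luminescence so 100% = untreated viability.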

Structure (SMILES): COc1cc2cc(C(=O)CCC(=O)O)sc2cc1OC + Nc1ccc(C#CCN(C(=O)Cc2ncc(C(F)(F)F)cc2C(F)(F)F)c2ccc(F)cc2)nn1
- IC50 (second compound 0.0316 µM): > 10 µM
- IC50 (second compound 0.1 µM): > 10 µM
- IC50 (second compound 0.316 µM): > 10 µM
- IC50 (second compound 1 µM): > 10 µM
- IC50 (second compound 3.16 µM): > 10 µM
- IC50 (second compound 10 µM): > 10 µM
- viability, T/C [1]: 84%
- viability, T/C [2]: 97.2%
- viability, T/C [3]: 94.5%
- viability, T/C [4]: 115%
- viability, T/C [5]: 81.2%
- viability, T/C [6]: 89.1%
- viability, T/C [7]: 87.3%
- viability, T/C [8]: 89.9%
- viability, T/C [9]: 87.5%
- viability, T/C [10]: 95.3%
- viability, T/C [11]: 84%
- viability, T/C [12]: 103%
- viability, T/C [13]: 112%
- viability, T/C [14]: 104%
- viability, T/C [15]: 86.4%
- viability, T/C [16]: 90.8%
- viability, T/C [17]: 86.2%
- viability, T/C [18]: 109%
- viability, T/C [19]: 99.6%
- viability, T/C [20]: 87.1%
- viability, T/C [21]: 86.9%
- viability, T/C [22]: 84.5%
- viability, T/C [23]: 94.2%
- viability, T/C [24]: 136%
- viability, T/C [25]: 108%
- viability, T/C [26]: 98.6%
- viability, T/C [27]: 95%
- viability, T/C [28]: 94.9%
- viability, T/C [29]: 92.2%
- viability, T/C [30]: 111%
- viability, T/C [31]: 98%
- viability, T/C [32]: 91.4%
- viability, T/C [33]: 93.5%
- viability, T/C [34]: 89.9%
- viability, T/C [35]: 100%
- viability, T/C [36]: 104%

Structure (SMILES): O=C(c1cc(Cc2n[nH]c(=O)c3ccccc23)ccc1F)N1CCN(C(=O)C2CC2)CC1 + Nc1ccc(C#CCN(C(=O)Cc2ncc(C(F)(F)F)cc2C(F)(F)F)c2ccc(F)cc2)nn1
- IC50 (second compound 0.0316 µM): > 10 µM
- IC50 (second compound 0.1 µM): > 10 µM
- IC50 (second compound 0.316 µM): > 10 µM
- IC50 (second compound 1 µM): > 10 µM
- IC50 (second compound 3.16 µM): > 10 µM
- IC50 (second compound 10 µM): > 10 µM
- viability, T/C [1]: 86.6%
- viability, T/C [2]: 109%
- viability, T/C [3]: 88.2%
- viability, T/C [4]: 97.9%
- viability, T/C [5]: 72.8%
- viability, T/C [6]: 73.6%
- viability, T/C [7]: 91.7%
- viability, T/C [8]: 95.8%
- viability, T/C [9]: 97.5%
- viability, T/C [10]: 93.8%
- viability, T/C [11]: 80.2%
- viability, T/C [12]: 61.4%
- viability, T/C [13]: 101%
- viability, T/C [14]: 103%
- viability, T/C [15]: 99.1%
- viability, T/C [16]: 102%
- viability, T/C [17]: 76.2%
- viability, T/C [18]: 65.8%
- viability, T/C [19]: 105%
- viability, T/C [20]: 90.1%
- viability, T/C [21]: 105%
- viability, T/C [22]: 84.5%
- viability, T/C [23]: 70.2%
- viability, T/C [24]: 53.7%
- viability, T/C [25]: 112%
- viability, T/C [26]: 109%
- viability, T/C [27]: 111%
- viability, T/C [28]: 90.3%
- viability, T/C [29]: 84.2%
- viability, T/C [30]: 65.9%
- viability, T/C [31]: 96.8%
- viability, T/C [32]: 104%
- viability, T/C [33]: 131%
- viability, T/C [34]: 115%
- viability, T/C [35]: 91.9%
- viability, T/C [36]: 68.6%

Structure (SMILES): CC1COCCN1c1cc(-c2ccnn2C)c2ccnc(-c3ccn[nH]3)c2n1 (stereo not drawn) + Cc1cccc(N(C)C(=O)C2C(O)CCN2c2nc(C)cc(C(F)(F)F)c2C#N)c1
- IC50 (second compound 0.0316 µM): 0.0316 µM
- IC50 (second compound 0.1 µM): > 10 µM
- IC50 (second compound 0.316 µM): > 10 µM
- IC50 (second compound 1 µM): > 10 µM
- IC50 (second compound 3.16 µM): 0.0316 µM
- IC50 (second compound 10 µM): 0.0316 µM
- viability, T/C [1]: 82.3%
- viability, T/C [2]: 55.7%
- viability, T/C [3]: 49.3%
- viability, T/C [4]: 37.8%
- viability, T/C [5]: 72.3%
- viability, T/C [6]: 83.1%
- viability, T/C [7]: 87%
- viability, T/C [8]: 55.3%
- viability, T/C [9]: 49.1%
- viability, T/C [10]: 44.5%
- viability, T/C [11]: 65.4%
- viability, T/C [12]: 73%
- viability, T/C [13]: 91.8%
- viability, T/C [14]: 59.6%
- viability, T/C [15]: 43.9%
- viability, T/C [16]: 38.6%
- viability, T/C [17]: 62.4%
- viability, T/C [18]: 79.8%
- viability, T/C [19]: 77.5%
- viability, T/C [20]: 73.6%
- viability, T/C [21]: 34%
- viability, T/C [22]: 42.5%
- viability, T/C [23]: 73.7%
- viability, T/C [24]: 73.7%
- viability, T/C [25]: 75.7%
- viability, T/C [26]: 55.8%
- viability, T/C [27]: 49.5%
- viability, T/C [28]: 43.7%
- viability, T/C [29]: 74.3%
- viability, T/C [30]: 85%
- viability, T/C [31]: 74.3%
- viability, T/C [32]: 58.2%
- viability, T/C [33]: 46.7%
- viability, T/C [34]: 36.5%
- viability, T/C [35]: 70.3%
- viability, T/C [36]: 94.8%

Structure (SMILES): C=CC(=O)N1CCN(c2nc(=O)n(-c3c(C)ccnc3C(C)C)c3nc(-c4c(O)cccc4F)c(F)cc23)C(C)C1 (stereo not drawn) + Cc1cccc(N(C)C(=O)C2C(O)CCN2c2nc(C)cc(C(F)(F)F)c2C#N)c1
- IC50 (second compound 0.0316 µM): < 0.0316 µM
- IC50 (second compound 0.1 µM): < 0.0316 µM
- IC50 (second compound 0.316 µM): < 0.0316 µM
- IC50 (second compound 1 µM): < 0.0316 µM
- IC50 (second compound 3.16 µM): < 0.0316 µM
- IC50 (second compound 10 µM): < 0.0316 µM
- viability, T/C [1]: 29.6%
- viability, T/C [2]: 26.5%
- viability, T/C [3]: 24.8%
- viability, T/C [4]: 22.2%
- viability, T/C [5]: 23.5%
- viability, T/C [6]: 27%
- viability, T/C [7]: 27.8%
- viability, T/C [8]: 25.2%
- viability, T/C [9]: 25%
- viability, T/C [10]: 23.5%
- viability, T/C [11]: 21.2%
- viability, T/C [12]: 29.3%
- viability, T/C [13]: 34.9%
- viability, T/C [14]: 22.1%
- viability, T/C [15]: 25.3%
- viability, T/C [16]: 26%
- viability, T/C [17]: 22.8%
- viability, T/C [18]: 25.5%
- viability, T/C [19]: 30.3%
- viability, T/C [20]: 25.7%
- viability, T/C [21]: 26.1%
- viability, T/C [22]: 21.8%
- viability, T/C [23]: 26.7%
- viability, T/C [24]: 27.4%
- viability, T/C [25]: 32.3%
- viability, T/C [26]: 28.7%
- viability, T/C [27]: 31.4%
- viability, T/C [28]: 25.9%
- viability, T/C [29]: 23.7%
- viability, T/C [30]: 25.7%
- viability, T/C [31]: 35.3%
- viability, T/C [32]: 28%
- viability, T/C [33]: 25.1%
- viability, T/C [34]: 26%
- viability, T/C [35]: 32%
- viability, T/C [36]: 28.3%
